# Key:
# normal-fed mice (Lean) = assay: Metabolic cage, normal-fed mice (Lean); type: in vivo, mouse; settings: for respiratory exchange rate / physical activity: 20 mg/kg
# Procedure: (§1) Before starting the metabolic cage experiment, the mice were fed in a single cage for 1 week. After a one-week single cage adaptation period, three days before the start of the small molecule compound injection, the mice were injected with 25 μL of DMSO within 2 hours before turning off the lights every afternoon, allowing them to adapt to the injection for 3 days. After 3 days of injection, the acclimated mice were put into the metabolic cage. Starting from the same day, 25 μL of DMSO and HLY72 (20 mg/kg) were injected within 2 hours before turning off the lights for 3 consecutive days.
# (§2) Next, the effect of HLY72 on the metabolism of mice is studied. We use two methods: (1) the relevant metabolic indexes of the mice are directly measured using the metabolic cage, and (2) the expression of the relevant key metabolic genes is detected. three metabolic parameters are obtained through the metabolic cage experiment: (1) Energy expenditure (EE), energy output is an important aspect of energy balance, under conditions such as restricted diet and fasting, mice will reduce basic metabolism, reduce energy expenditure; (2) respiratory exchange ratio (RER), based on the ratio calculated by CO2 produced and the use of 02, RER of 1 means that carbohydrates is mainly used as energy, RER of 0.7 means that fat is mainly used as fuel; (3) physical activity (Activity).
# [1] = system: obese mice fed with high-fat diet (DIO); assay: Metabolic cage, obese mice fed with high-fat diet (DIO); type: in vivo, mouse; settings: 20 mg/kg
# Procedure: as §1, §2
# [2] = system: NUCB2 gene knockout heterozygous mice; assay: Effect on NUCB2 gene knockout heterozygous mice; type: in vivo, mouse
# Description: Heterozygous mice prepared by the CRISPR-Cas9 system were purchased from Xiamen University. […] Heterozygous mice deleted 83 bases in E3 and confirmed by sequencing (FIG. 17c). In order to facilitate the experiment, for mice with 83 bases deleted, we designed primers to detect by PCR (FIG. 17b). Because of the failure to obtain NUCB2 knockout homozygous mice for multiple matches, only heterozygous mice can be used for research.
# [3] = system: lipid metabolism related genes; assay: Expression of lipid metabolism related genes in tissues (RT-PCR); type: in vivo, mouse; settings: 20 mg/kg 3 consecutive days
# Procedure: Mice fed with normal diet are injected with 20 mg/kg of HLY72 for 3 consecutive days, and the white adipose tissue (A) is taken to detect fat storage, fatty acid synthesis and decomposition-related gene expression. Liver (B) is taken to detect fatty acid transport and oxidative gene expression. Muscle (C) is taken to test the fatty acid transport and oxidative gene expression (14 mice per group).
# After the mice were euthanized, the corresponding tissues were immediately peeled off and quickly frozen with liquid nitrogen and stored at −80° C. For the cell sample in the 6-well petri dish, after removing the culture medium, 1 mL of Trizol was added and placed at room temperature for 10 minutes, then transferred to a 1.5 mL EP tube and stored at −80° C. When extracting tissue RNA, 1.5 mL of Trizol was added to the tissue homogenization tube containing steel balls, the tissue was removed from the −80° C. refrigerator and put into the homogenization tube to homogenize and crush. RNA was extracted by phenol-chloroform-isopropanol method. Using the Superscript™III first strand synthesis system (Invitrogen) kit, 1 μg of mRNA was reverse transcribed into cDNA, and random primers were used for reverse transcription. Quantitative SYBR green PCR kit (Takara) kit was used for quantitative PCR reaction. The instrument for PCR reaction was ABI-QuantStudio 6 Realtime PCR instrument.
# After injection of HLY72 in mice, the epididymal white adipose tissue, liver and muscle tissue were taken to detect the expression of lipid metabolism related genes. […] The expression of fatty acid transporter gene FAT (CD36), FATP2, FATP5 on the liver cell membrane is increased, the expression of the transporter gene CPT1A for fatty acid entering the mitochondria and the key enzyme gene ACADM of fatty acid β-oxidation are increased (FIG. 15b). At the same time, the expression of muscle cell membrane fatty acid transporter genes FATP1 and FATP4 are increased, and the expression of the transporter gene CPT1B for fatty acid entering the mitochondria and the key enzyme gene ACADM of fatty acid β-oxidation are increased (FIG. 15c). Changes in gene expression in these tissues indicate that liver and muscle tissues have increased the use of fatty acids.
# high-fat diet obese mice = assay: Blood biochemical tests and liver slices of obese mice; type: in vivo, mouse; settings: 20 mg/kg
# Procedure: Mouse liver tissues were taken and fixed in 4% paraformaldehyde at 4° C. overnight. It was washed twice with PBS buffer solution in 30% and 50% ethanol for 30 minutes each, and stored in 70% ethanol at 4° C. (1) Gradient dehydration of ethanol: 80% ethanol for 30 minutes, 95% ethanol for 30 minutes, 100% ethanol for 15 minutes, and fresh 100% ethanol for 15 minutes. (2) Xylene transparent: ½ absolute ethanol plus ½ xylene for 15 minutes, xylene for 10 minutes, and fresh xylene for 10 minutes. (3) Wax immersion, embedding, sectioning: ½ xylene plus ½ paraffin for 30 minutes, paraffin 1 for 90 minutes, paraffin 2 for 120 minutes, paraffin 3 overnight for embedding, conventional section thickness was 4 μm, pasted on clean glass slides that have been processed, the slides were baked at 37° C. overnight, collected in a slide box and sealed at 4° C. (4) Xylene dewaxing, gradient ethanol rehydration: tissue sections were dewaxed three times with xylene, 10 minutes each time, and placed in ½ xylene plus ½ absolute ethanol for 15 minutes. After 5 minutes each of 100%, 90%, 80%, 70%, 50% and 30% ethanol, it was put in pure water for 5 minutes. (5) HE staining, filming: hematoxylin staining at room temperature for 20 minutes, rinsed under running water, color separation with 0.1% hydrochloric acid and ethanol for 1 second, rinsed under running water, after 1 minute each of 30%, 50%, 70%, 80% and 95% ethanol, it was stained with 1% eosin for 1 minute. It was put in absolute ethanol for 1 minute and dehydrated with fresh absolute ethanol twice for 5 minutes each time, it was put in ½ absolute ethanol plus ½ xylene for 15 minutes, and then xylene 1, 2, 3 for 5 minutes each time. Sealed with neutral gum and stored at room temperature in a dry place. The cell platform Olympus BX51 microscope was used for filming.
# The effects on the various adverse indicators of obesity after drug administration were detected.
# Water solubility = type: physicochemical
compound,measurement,setting,value
C=Cc1cccc2c1N(C)Cc1cc3c(cc1-2)OCO3 [HLY72],energy expenditure,"normal-fed mice (Lean); 20 mg/kg once a day, night (dark) and day (light)",significantly reduces
same,respiratory exchange rate,normal-fed mice (Lean); at night,significantly reduced
same,physical activity,normal-fed mice (Lean); daytime,does not affect
same,respiratory exchange rate,normal-fed mice (Lean); during the day,no change
same,physical activity,normal-fed mice (Lean); night,decreased
same,physical activity,[1]; at night,significantly reduced
same,energy expenditure,[1]; at night and during the day,significantly reduced
same,respiratory exchange rate compared with the DMSO group,[1]; at night and during the day,significantly reduced
same,physical activity,[1]; during the day,no change
same,effect on daily food intake in heterozygous mice,[2],reduced
same,effect on mouse weight in heterozygous mice,[2],reduced
same,expression of ACADM,[3]; liver,increased
same,expression of CPT1A,[3]; liver,increased
same,expression of FAT (CD36),[3]; liver,increased
same,expression of FATP2,[3]; liver,increased
same,expression of FATP5,[3]; liver,increased
same,expression of ACADM,[3]; muscle,increased
same,expression of CPT1B,[3]; muscle,increased
same,expression of FATP1,[3]; muscle,increased
same,expression of FATP4,[3]; muscle,increased
same,expression of ATGL (lipolytic gene),[3]; white adipose tissue,increase
same,expression of DGAT (fat storage gene),[3]; white adipose tissue,significantly reduced
same,expression of FAS (fatty acid synthesis gene),[3]; white adipose tissue,significantly down-regulated
same,expression of SCD1 (fatty acid synthesis gene),[3]; white adipose tissue,significantly down-regulated
same,alanine transaminase ALT,high-fat diet obese mice,decreased
same,aspertate aminotransferase AST,high-fat diet obese mice,does not change
same,blood glucose,high-fat diet obese mice,decreased significantly
same,cholesterol levels,high-fat diet obese mice,decreased significantly
same,triacylglycerol,high-fat diet obese mice,decreased significantly
same,fatty liver caused by high fat (liver slices),high-fat diet obese mice; HE staining,well treated
same,water solubility,Water solubility,very poor

# — patent US20200385396A1, “Compond for treatment or prevention of obesity or diseases related to obesity, and application thereof” (SHANGHAI INSTITUTES FOR BIOLOGICAL SCIENCES, CHINESE …, priority 2017, published 2020)
